Values joined by “and” are separate entries in the source; they are usually repeats but may differ in a detail not shown here. Equal values may be shown once. Some results are limits rather than exact numbers.

Usually viability, T/C stands for the result in the treated group divided by that in the control group, in per cent. As usually defined, the IC50 is the concentration needed to halve the response being measured.

In the assay the test system is 349418-098-R-PDC complex spheroid viability. The assay can be described thus: Anticancer human tumor 349418-098-R-PDC patient-derived lung adenocarcinoma cell line growth inhibition [RAS]. To be noted: for viability, T/C: stronger effect = lower value. An excerpt: RAS pathway inhibitors in Combinations in Complex Spheroids
A high-throughput screen of multi-cell type tumor spheroids was designed to identify active combinations of RAS pathway inhibitors and targeted small molecules. Complex spheroids include a stromal component modeled by human endothelial cells (HUVEC) and fibroblasts modeled by human mesenchymal stem cells (MSCs). The concentration ranges selected for each drug and investigational agent were based upon clinically achievable concentrations if the clinical Cmax of the agent was known.
Compounds. The drugs and investigational agents: abemaciclib (NSC768073), cobimetinib (NSC768068), divarasib (GDC6063, NSC841802), docetaxel (NSC628503), GDC-1971 (RLY-1971, NSC841576), gemcitabine (NSC613327), inavolisib (NSC800729), ipatasertib (NSC767898), KB-0742 (NSC834161), MRTX-1133 (NSC836407), osimertinib (NSC779217), RMC-4630 (NSC839698), RMC-6236 (NSC851965), RMC-6291 (NSC852671), Ro-3306 (NSC812927), sapanisertib (NSC764658), SN-38 (NSC673596), staurosporine (NSC755774), SY5609 (NSC837396), and tovorafenib (DAY101, NSC766906), were obtained from the National Cancer Institute (NCI) Developmental Therapeutics Program Chemical Repository. The FDA-approved anticancer drug set is available from the NCI Developmental Therapeutics Program. […] The stock solutions were prepared in dimethyl sulfoxide (DMSO, Sigma-Aldrich, St. Louis, MO, cat. D2650) at 800-fold the tested concentration and stored at -70 degrees C prior to their use. All drugs and investigational agents were tested over a range starting from a high concentration at or near the clinical Cmax and decreasing in half-log increments. If the clinical Cmax for an agent had not been determined, the highest concentration tested was 10 microM.
Cell Culture. All cells were maintained in an incubator at 37 degrees C and 5% CO2 with 95% humidity. The PDC lines were cultured according to standard operating procedures established by the NCI PDMR. All PDCs were thawed and cultured in Matrigel-coated flasks prepared with a working solution of 1X Ham's F-12 nutrient mix, without supplementation (Invitrogen, Waltham, MA, cat. 11765054), 100 U/mL penicillin-streptomycin (Invitrogen, cat. 15140122), and 2.5% Matrigel (Corning Inc., Corning, NY, cat. 354248) for the first three passages. The 362531-283-R-J2-PDC and 782815-120-R-J1-PDC lines were cultured in 6C/Colon 1B media, which includes advanced DMEM/F-12 (Thermo Fisher Scientific, cat. 12634028), 10 mM HEPES (Thermo Fisher Scientific, cat. 15630080), 1X GlutaMAX supplement (Thermo Fisher Scientific, cat. 35050061), 0.1 mg/mL primocin (InvivoGen, San Diego, CA, cat. ant-pm-2), 10% defined fetal bovine serum, heat inactivated (HyClone Laboratories Inc., Logan, UT, cat. SH30070.03HI), 50% L-WRN conditioned media (ATCC, cat. CRL-3276), 1.25 mM N-Acetyl-L-cysteine (Sigma-Aldrich, cat. A9165), 10 mM nicotinamide (Sigma-Aldrich, cat. N0636), 1X B-27 supplement (Thermo Fisher Scientific, cat. 17504044), 1X N-2 supplement (Thermo Fisher Scientific, cat. 17502048), 50 ng/mL human EGF (Thermo Fisher Scientific, cat. PHG0311), and 10 microM Y-27632 dihydrochloride (Tocris Bioscience, cat. 1254). The K12877-001-R-J1-PDC line was cultured in 6I media, which includes all 6C/Colon 1B media plus 10 ng/mL human FGF-10 (PeproTech, cat. 100-26), 1 ng/mL human FGF-2 (PeproTech, cat. 100-18B), 1 µM prostaglandin E2 (Tocris Bioscience, cat. 2296), […] hydrocortisone (Sigma-Aldrich, cat. H4001), and […] bovine insulin (Sigma-Aldrich, cat. I6634). The K86415-001-R-J1-PDC line was cultured in 6D media, which includes all 6C/Colon 1B media components minus the L-WRN conditioned media. The 485176-168-R4-J1-PDC was cultured in PANC media, which includes all 6C/Colon 1B media plus 100 ng/mL human FGF-10 (PeproTech, cat. 100-26), 500 nM SB-431542 (Selleckchem, cat. S1067), and 10 nM gastrin (Tocris Bioscience, cat. 3006). […]

Setting [1] is: compound alone, run of 05/20/2024.
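Also: spheroids exposed to compound for seven days before viability readout.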

On to `C#Cc1c(F)ccc2cc(O)cc(-c3ncc4c(N5CC6CCC(C5)N6)nc(OCC56CCCN5CC(F)C6)nc4c3F)c12` (stereo not given), for which the viability, T/C (compound 0.0316 µM) was 87.2% [middle of 8 runs] and the viability, T/C (compound 10 µM) is 71.8% [middle of 8 runs]. For the same compound, for the setting “compound alone, run of 06/10/2024”, the IC50 is greater than 10000 nM.

Regarding `C=CC(=O)Nc1cc(Nc2nccc(-c3cn(C)c4ccccc34)n2)c(OC)cc1N(C)CCN(C)C`, the viability, T/C runs as follows: (compound 0.00316 µM) 104% [middle of 4 runs]; (compound 0.316 µM) 85.7% [middle of 4 runs]; (compound 1 µM) 71.4% [middle of 4 runs]. Further, under “curve of compound”, the IC50 was greater than 1000 nM.

For `CC(=O)OC12COC1CC(O)C1(C)C(=O)C(O)C3=C(C)C(OC(=O)C(O)C(NC(=O)OC(C)(C)C)c4ccccc4)CC(O)(C(OC(=O)c4ccccc4)C21)C3(C)C` (stereo not given), the viability, T/C reads like this: (compound 0.0316 µM) 14.5% [middle of 4 runs]; (compound 0.1 µM) 14.6% [middle of 4 runs]; (compound 0.316 µM) 17.6% [middle of 4 runs]; (compound 1 µM) 15.2% [middle of 4 runs]; (compound 3.16 µM) 24.6% [middle of 4 runs]; (compound 10 µM) 25.8% [middle of 4 runs]. Further, the IC50 (curve of compound) is less than 31.6 nM.

On to `CC(C)n1nc(-c2ccc3oc(N)nc3c2)c2c(N)ncnc21`, for which the viability, T/C is 44.1% (2×) and 55.6% and 55.3% (compound 0.00316 µM); 17% [middle of 4 runs] (compound 0.01 µM); 8.74% [middle of 4 runs] (compound 0.0316 µM); 7.93% [middle of 4 runs] (compound 0.1 µM). Also, the IC50 (curve of compound) is 3.6 nM [middle of 4 runs].

With `CC(Nc1ccc2c(c1)OCCn1cc(N3C(=O)OCC3C(F)F)nc1-2)C(N)=O` (stereo not given), the viability, T/C by setting is: (compound 0.0316 µM) 75.9% [middle of 4 runs]; (compound 0.1 µM) 49.6% [middle of 4 runs]; (compound 0.316 µM) 32% [middle of 4 runs]; (compound 1 µM) 21.9% [middle of 4 runs]; (compound 10 µM) 14.1% [middle of 4 runs].

As to `CC1(C)CCC(Nc2ncc(C(F)(F)F)c(-c3c[nH]c4c(P(C)(C)=O)c(C#N)ccc34)n2)CN1` (stereo not given), the viability, T/C by setting is: (compound 0.000949 µM) 65.3% [middle of 4 runs]; (compound 0.003 µM) 24.7% [middle of 4 runs]; (compound 0.00949 µM) 15.5% [middle of 4 runs]; (compound 0.03 µM) 9.86% [middle of 4 runs]; (compound 0.0949 µM) 8.72% [middle of 4 runs]; (compound 0.3 µM) 8.1% [middle of 4 runs]. Besides, the IC50 (curve of compound) was 1.47 nM and < 0.949 nM and 1.51 nM.

As to `CC1(O)CCCC1n1c(=O)c(C(F)F)cc2cnc(NC3CCN(S(C)(=O)=O)CC3)nc21` (stereo not given), the viability, T/C is 79.5% [middle of 4 runs] (compound 0.0316 µM); 43% [middle of 4 runs] (compound 0.1 µM); 26.1% [middle of 4 runs] (compound 0.316 µM); 22.1% [middle of 4 runs] (compound 1 µM); 19.5% [middle of 4 runs] (compound 3.16 µM); 2.67% [middle of 4 runs] (compound 10 µM). Moreover, where the note is “curve of compound”, the 50% inhibitory concentration (IC50) was 87.8 nM [middle of 4 runs].

Take `CCC(CC)c1cc(NC2CCC(N)C2)n2nccc2n1` (stereo not given): the viability, T/C by setting is: (compound 0.0316 µM) 101% [middle of 4 runs]; (compound 1 µM) 41.9% [middle of 4 runs]; (compound 3.16 µM) 2.95% [middle of 4 runs]; (compound 10 µM) 2.61% [middle of 4 runs]. Moreover, where the note is “curve of compound”, the IC50 is 778 nM [middle of 4 runs].

`CCN1CCN(Cc2ccc(Nc3ncc(F)c(-c4cc(F)c5nc(C)n(C(C)C)c5c4)n3)nc2)CC1`: the viability, T/C (compound 0.01 µM) was 59.8% [middle of 4 runs]; the viability, T/C (compound 0.1 µM) is 28.7% [middle of 4 runs]; the viability, T/C (compound 0.316 µM) is 23.5% [middle of 4 runs]; the viability, T/C (compound 1 µM) is 17.6% [middle of 4 runs].

On to `CCc1c2c(nc3ccc(O)cc13)-c1cc3c(c(=O)n1C2)COC(=O)[C@]3(O)CC`, for which the viability, T/C (compound 0.000949 µM) is 82% [middle of 4 runs]; the viability, T/C (compound 0.003 µM) was 39.4% [middle of 4 runs]; the viability, T/C (compound 0.00949 µM) is 17.2% [middle of 4 runs]; the viability, T/C (compound 0.03 µM) was 6.46% [middle of 4 runs]; the viability, T/C (compound 0.0949 µM) is 3.27% [middle of 4 runs]; the viability, T/C (compound 0.3 µM) was 2.43% [middle of 4 runs]. Where the note is “curve of compound”, the concentration for half-maximal inhibition (IC50) was 2.32 nM [middle of 4 runs].

As to `CCn1c(-c2cc(N3CCN(C)CC3)cnc2C(C)OC)c2c3cc(ccc31)-c1csc(n1)CC(NC(=O)C1CC1C)C(=O)N1CCCC(N1)C(=O)OCC(C)(C)C2` (stereo not given), the viability, T/C is 108% [middle of 8 runs] (compound 0.000949 µM), 103% [middle of 8 runs] (compound 0.003 µM), 105% [middle of 8 runs] (compound 0.03 µM) and 111% [middle of 8 runs] (compound 0.0949 µM). Under setting [1], the half-maximal inhibitory concentration (IC50) was greater than 300 nM.

In the case of `CCn1c(-c2cccnc2C(C)OC)c2c3cc(ccc31)N1CCOC(CC(NC(=O)C(C(C)C)N(C)C(=O)C3(F)CCN(C(=O)C#CC(C)(C)N(C)C)CC3)C(=O)N3CCCC(N3)C(=O)OCC(C)(C)C2)C1` (stereo not given), under “compound 0.003 µM”, the viability, T/C is 111% [middle of 8 runs]. For the same compound, under setting [1], the IC50 is greater than 300 nM.

As for `Cc1nc(N2CCC3(CC2)COC(C)C3N)c(CO)nc1Sc1ccnc(N)c1Cl` (stereo not given), the viability, T/C was 91.6% [middle of 4 runs] (compound 0.0316 µM); 102% [middle of 4 runs] (compound 0.1 µM); 101% [middle of 4 runs] (compound 0.316 µM); 100% [middle of 4 runs] (compound 3.16 µM); 95.3% [middle of 4 runs] (compound 10 µM). The IC50 (curve of compound) is greater than 10000 nM.

`NC1c2ccccc2OC12CCN(c1cnc3c(N4CCCc5ncccc54)n[nH]c3n1)CC2` (stereo not given): the viability, T/C is, setting by setting: (compound 0.0316 µM) 102% [middle of 4 runs]; (compound 3.16 µM) 98.5% [middle of 4 runs]; (compound 10 µM) 68.6% [middle of 4 runs]. For the same compound, the IC50 (curve of compound) is greater than 10000 nM.

On to `Nc1ccn(C2OC(CO)C(O)C2(F)F)c(=O)n1` (stereo not given), for which the viability, T/C runs as follows: (compound 0.00316 µM) 25.7% [middle of 4 runs]; (compound 0.01 µM) 6.96% [middle of 4 runs]; (compound 0.0316 µM) 5.62% [middle of 4 runs]; (compound 0.1 µM) 5.46% [middle of 4 runs]; (compound 0.316 µM) 5.2% [middle of 4 runs]; (compound 1 µM) 5.11% [middle of 4 runs]. In addition, for the setting “curve of compound”, the IC50 was less than 3.16 nM.

In the case of `O=C(c1ccc(F)c(F)c1Nc1ccc(I)cc1F)N1CC(O)([C@@H]2CCCCN2)C1`, the viability, T/C is, setting by setting: (compound 0.00316 µM) 35.9% [middle of 4 runs]; (compound 0.01 µM) 35.3% [middle of 4 runs]; (compound 0.0316 µM) 33% [middle of 4 runs]; (compound 0.1 µM) 12.2% [middle of 4 runs]; (compound 0.316 µM) 7.62% [middle of 4 runs]; (compound 1 µM) 6.03% [middle of 4 runs]. The IC50 (curve of compound) was less than 3.16 nM.

(Values after PubChem BioAssay AID2060904 (Molecular Pharmacology Branch, DTP, NCI, 2025).)
